The conditions of series [1]: introduction, background statement; ref Jilani et al., 2013; cited from earlier work.
The next series has as its system MDBK cells. Kind of series: cytotoxicity (drug-exposure viability) assay, CCK-8. Type of series: cell-based, bovine. Here is the method: (§1) Each medium was supplemented with 10% fetal bovine serum, 0.5% penicillin/streptomycin (Gibco, Life Technologies, USA), and an additional 1% glutamine. The medium was changed every 3–4 days and incubated until approximately 80% confluent. The cells were free from mycoplasma contamination after being checked by staining with DAPI (Sigma-Aldrich, USA). The detachment of cells from the culture flask was done using TrypLE™ Express (Gibco, Life Technologies, USA) after washing two times with Dulbecco's phosphate-buffered saline (DPBS). Subsequently, the counting of viable cells was carried out using a Neubauer improved C-Chip (NanoEntek Inc., Korea) after staining with 0.4% trypan blue solution. The drug-exposure viability assay was performed in accordance with the recommendation of the Cell Counting Kit-8 (CCK-8, Dojindo, Japan). Briefly, the assay was carried out using a 96-well plate at 37 °C in a humidified incubator with 5% CO2. One hundred microliters of cells at a density of 5 × 10^4 cells/ml was seeded per well and allowed to attach to the plate for 24 h. […] The exposure of drugs was carried out for 24 h, followed by the addition of 10 μl of CCK-8. The plate was further incubated for 3 h, and the absorbance was measured at 450 nm using a microplate reader.

In series [2] the test system is B. bigemina (Argentina strain). Kind of series: in vitro multiplication inhibition assay (SYBR Green I fluorescence, 96 h), single drugs and two-drug combinations. To be noted: B. bigemina, 96 h, triplicate, mean ± SD; read-out: IC50 on in vitro culture of parasites. Type of series: cell-based, Babesia bigemina. Here is the method: (§2) Babesia parasite cultures were maintained using a microaerophilic stationary-phase culture system ([Levy and Ristic, 1980]; [Avarzed et al., 1997]; [Igarashi et al., 1998]). Briefly, bovine Babesia parasites were grown in bovine red blood cells (RBC) in the specific complete medium for each species. The medium for B. bovis (Texas strain) contained GIT medium supplemented with 10% bovine serum, while the medium for B. bigemina (Argentina strain) and B. divergens (Germany strain) was Medium 199 and RPMI 1640 medium, respectively, supplemented with 40% bovine serum ([Rizk et al., 2016]). B. caballi (USDA strain) was grown using equine RBC in GIT medium supplemented with 10% equine serum. T. equi (USDA strain) was grown in equine RBC in M199 medium supplemented with 40% equine serum and hypoxanthine (MP Biomedicals, USA) at a final concentration of 13.6 μg/ml. All of the media included 60 U/ml penicillin G, 60 μg/ml streptomycin, and 0.15 μg/ml amphotericin B (Sigma-Aldrich, USA). The cultures were incubated at 37 °C in a humidified chamber with an atmosphere of 5% CO2, 5% O2, and 90% N2.
(§3) The assays were conducted in accordance with the protocol described previously with modification ([Guswanto et al., 2014]). Briefly, the cultures of B. bovis, B. bigemina, B. divergens, B. caballi, and T. equi with a parasitemia of 8%, 3%, 10%, 4%, and 9%, respectively, were harvested and adjusted to 1% parasitemia with fresh RBC before the inhibition assay. The 60 inner wells of a 96-well plate were used in the assay, while the peripheral wells were filled with sterile distillate water to reduce evaporation during incubation. To each well in triplicate, 2.5 μl of infected RBC (5 μl for B. divergens, B. caballi, and T. equi) was added and mixed with a culture medium containing the drug to a total volume of 100 μl. The stock solution of 17-DMAG, DA, and AV was dissolved in a culture medium at various concentrations using two-fold dilution. A culture medium containing DMSO at a final concentration of 0.2% was added to the well with infected RBC as a positive control and to the well with uninfected RBC as a negative control. Furthermore, a drug combination assay was conducted in parallel with the single drug assay at the constant ratio in accordance with the Chou–Talalay method ([Chou, 2006]). In the same plate with a single drug inhibition assay, a two-drug combination (DA+17-DMAG, DA + AV, and 17-DMAG + AV) at concentrations of 0.25 x IC50, 0.5 x IC50, IC50, 2 x IC50, and 4 x IC50 was added to the well containing infected RBC in triplicate. The plate was incubated in a humidified incubator with 5% CO2, 5% O2, and 90% N2. After 96 h, 100 μl of a lysis buffer containing SYBR Green I was added to each well. The plate was wrapped with aluminum foil to avoid direct light exposure and incubated at room temperature. After incubation for 6 h, fluorescence values were measured using a fluorescence spectrophotometer (Fluoroskan Ascent, Thermo Fisher Scientific, USA) with the excitation and emission wavelength at 485 nm and 518 nm, respectively. The fluorescence data were subtracted from the negative control and used to calculate the IC50.
(§4) The IC50 of 17-DMAG, DA, and AV was calculated from the percentage of inhibition on the in vitro multiplication of all tested species using non-linear regression (curve fit), available in GraphPad Prism (GraphPad Software Inc., USA). Combination index (CI) values for the drug combination were calculated using CompuSyn software ([Chou, 2006]). Since the chemotherapy effect is preferable at the highest inhibition, the degree of synergism was determined as the weighted average of CI values using a formula ((1 x IC50) + (2 x IC75) + (3 x IC90) + (4 x IC95))/10 ([Chou, 2006]). The differences among groups regarding the parasitemia, hematology profiles, and body weight in the B. microti–infected mouse model were analyzed using Student's t-test, available in GraphPad Prism software.

A further series deals with NIH/3T3 cells. Description: cytotoxicity (drug-exposure viability) assay, CCK-8. The format is cell-based, mouse. Here is the method:
as §1

Series [3] concerns B. divergens (Germany strain). Description: in vitro multiplication inhibition assay (SYBR Green I fluorescence, 96 h), single drugs and two-drug combinations. The format is cell-based, Babesia divergens. To be noted: B. divergens, 96 h, triplicate, mean ± SD; read-out: IC50 on in vitro culture of parasites. The method, then:
as §2, §3, §4

The subject of a further series is B. bovis (Texas strain). The series is described as above. The format is cell-based, Babesia bovis. Particulars: B. bovis, 96 h, triplicate, mean ± SD; read-out: IC50 on in vitro culture of parasites. Here is the method:
as §2, §3, §4

A further series concerns B. caballi (USDA strain). The series is described as above. The format is cell-based, Babesia caballi. To be noted: B. caballi, 96 h, triplicate, mean ± SD; read-out: IC50 on in vitro culture of parasites. Here is the method: as §2, §3, §4
Series [4] has as its system B. microti (Munich strain). Description: inhibition assay using a B. microti-infected mouse model. Type of series: in vivo, BALB/c mice. Particulars: 17-DMAG 30, DA 25, AV 20 mg/kg BW; 17-DMAG + DA 15 + 15, 17-DMAG + AV 15 + 10, DA + AV 15 + 10 mg/kg BW; 5 consecutive days. Here is the method:
B. microti (Munich strain) was recovered from -80 °C stock in two 6-week female Balb/c mice (Clea, Japan). The parasitemia was monitored every 2 days. […] The inhibitory effect of 17-DMAG was also determined using a B. microti mouse model according to the previous protocol ([Goo et al., 2010]). Briefly, 35 female BALB/c mice aged 8 weeks received an intraperitoneal injection of 1 × 10^7 of B. microti-infected RBC and were divided into seven groups. Another group consisting of five mice was kept uninfected and untreated as a control. The multiplication of B. microti was observed from blood smears after staining with Giemsa using a light microscope. The drug treatment was initiated to all infected mice on day five, after the parasitemia reached approximately 1%, and continue to the total of five consecutive days. Group 1 was treated with 4% DMSO in saline water as a control intraperitoneally. […] The parasitemia was estimated from Giemsa-stained blood smears using microscopy in approximately 5000 RBC. Furthermore, the hematology profiles including RBC, hemoglobin, and hematocrit were measured from 10 μl of mouse blood using an automatic hematology analyzer (Celltac α MEK-6450, Nihon Kohden, Tokyo, Japan). The rate of parasitemia, hematology profiles, and mouse body weight was monitored for 60 days. The experiment was repeated once so each group contained 10 mice. […] Combination index (CI) values for the drug combination were calculated using CompuSyn software ([Chou, 2006]). […] The differences among groups regarding the parasitemia, hematology profiles, and body weight in the B. microti-infected mouse model were analyzed using Student's t-test, available in GraphPad Prism software. The difference was considered significant if P < 0.05.

The mark [5] stands for this setting: at a concentration of 40 μM, separate assay.

Each structure is given as a SMILES string.

For `C=CCNC1=C2C[C@@H](C)C[C@H](OC)[C@H](O)[C@@H](C)/C=C(\C)[C@H](OC(N)=O)[C@@H](OC)/C=C\C=C(/C)C(=O)NC(=CC1=O)C2=O` [17-AAG, 17-N-allylamino-17-demethoxygeldanamycin], the solubility entry in series [1] is on record as “poor solubility”.
In the case of `CC(=O)NCC(=O)O.CC(=O)NCC(=O)O.N=C(N)c1ccc(N=NNc2ccc(C(=N)N)cc2)cc1` [DA, diminazene aceturate], the IC50 in the series with MDBK cells (MDBK, 24 h exposure, CCK-8, read-out: IC50 on cell line MDBK) is above 40 µM; in series [2], 1850 ± 104 nM; in the series with NIH/3T3 cells (NIH/3T3, 24 h exposure, CCK-8, read-out: IC50 on cell line NIH/3T3) it was above 40 µM; in series [3], 378 ± 39.3 nM; in the series with B. bovis (Texas strain), 190 ± 42.1 nM; in the series with B. caballi (USDA strain), 13.4 ± 3.6 nM. The “inhibition on MDBK cell viability” value in the series on MDBK cells (setting [5]) is listed as “did not show any inhibition”. Besides, in the series with NIH/3T3 cells (setting [5]), the “inhibition on NIH/3T3 cell viability” value was “did not show any inhibition”. For the same molecule, the “day p.i. on which parasite no longer detected in blood smears via microscopy (parasite clearance)” value in series [4] is listed as at most 28 day p.i.
For the molecule `COC1=C2C[C@@H](C)C[C@H](OC)[C@H](O)[C@@H](C)/C=C(\C)[C@H](OC(N)=O)[C@@H](OC)/C=C\C=C(/C)C(=O)NC(=CC1=O)C2=O` [geldanamycin], the solubility entry in series [1] is “poor solubility”.
